Laboratory results as given in publication PMC6353850, “Supersensitive Odorant Receptor Underscores Pleiotropic Roles of Indoles in Mosquito Ecology” (Frontiers in Cellular Neuroscience, 2019).
Structures can show the parent of a compound that is named as a salt. Where two headings read alike, the source gives them in different places.

Columns and labels:
[1] = molecular target: AaegOR9 (Aedes aegypti, UniProt Q177X5); experiment: Two-electrode voltage clamp of Xenopus oocytes expressing AaegOR9-ORco (tuning curve and concentration-response); format: cell-based; settings: for Rank according to potency (No.): AaegOR9 tuning curve of Figure 1, 500 nM, 1 = most potent of 31; for Ligand potency in AaegOR9 tuning curve (in words) / AaegOR9 response relative to indole (tuning curve): 500 nM odorant; for Ligand potency in AaegOR9 tuning curve (in words): panel of 31 indole derivatives; for AaegOR9 response relative to indole (tuning curve): responses normalized to indole, n = 10
Chain of AaegOR9 (Q178U6 whole entry): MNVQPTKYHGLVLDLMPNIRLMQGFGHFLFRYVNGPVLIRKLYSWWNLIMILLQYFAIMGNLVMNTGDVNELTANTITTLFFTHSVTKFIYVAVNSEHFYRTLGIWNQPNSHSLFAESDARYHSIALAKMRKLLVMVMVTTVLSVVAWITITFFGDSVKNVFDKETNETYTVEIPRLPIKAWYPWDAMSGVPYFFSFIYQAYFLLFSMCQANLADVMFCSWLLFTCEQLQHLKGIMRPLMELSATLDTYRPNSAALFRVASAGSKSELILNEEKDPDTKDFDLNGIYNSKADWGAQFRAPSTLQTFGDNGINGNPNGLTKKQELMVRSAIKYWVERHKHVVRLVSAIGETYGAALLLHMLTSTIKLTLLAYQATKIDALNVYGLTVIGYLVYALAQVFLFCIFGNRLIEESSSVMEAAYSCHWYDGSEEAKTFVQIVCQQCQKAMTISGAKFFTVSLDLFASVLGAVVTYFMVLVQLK
Chain of AaegOR9 (Q177X5 entry or part of it): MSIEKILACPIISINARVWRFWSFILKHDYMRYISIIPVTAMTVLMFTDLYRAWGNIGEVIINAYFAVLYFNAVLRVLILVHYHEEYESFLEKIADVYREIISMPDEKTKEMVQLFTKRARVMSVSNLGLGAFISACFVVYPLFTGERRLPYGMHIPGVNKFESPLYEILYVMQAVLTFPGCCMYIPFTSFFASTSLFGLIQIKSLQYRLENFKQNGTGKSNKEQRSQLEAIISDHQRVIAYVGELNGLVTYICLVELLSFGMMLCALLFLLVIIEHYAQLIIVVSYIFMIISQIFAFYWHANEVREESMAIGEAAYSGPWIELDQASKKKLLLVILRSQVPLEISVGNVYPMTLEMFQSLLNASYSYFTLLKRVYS
Method: The methodologies and protocols have been described in details elsewhere (Bohbot and Dickens, [2009]). AaegOr9 and Aaeg-ORco cRNAs (Bohbot et al., [2011]) were synthesized from linearized pSP64DV expression vectors using the mMESSAGE mMACHINE® SP6 kit (Life Technologies). Stage V-VII oocytes were harvested from Xenopus laevis females, mechanically separated, treated with collagenase (8 mg/mL, 30 min, 18°C) and rinsed in washing solution (96 mM NaCl, 2 mM KCl, 5 mM MgCl2 and 5 mM HEPES, pH 7.6). Oocytes were microinjected with 27.6 ng AaegOr9 and AaegORco cRNAs, incubated at 18°C for 3–4 days in ND96 solution (96 mM NaCl, 2 mM KCl, 5 mM MgCl2, 0.8 mM CaCl2 and 5 mM HEPES, pH 7.6), supplemented with 5% dialyzed horse serum, 50 μg/mL tetracycline, 100 μg/mL streptomycin and 550 μg/mL sodium pyruvate. Whole-cell currents were recorded using the two-microelectrode voltage-clamp technique. During recording sessions, the holding potential was maintained at −80 mV using an OC-725C oocyte clamp (Warner Instruments, LLC, Hamden, CT, USA). Oocytes placed in a RC-3Z oocyte recording chamber (Warner Instruments, LLC, Hamden, CT, USA) were exposed to odorants for 8 s. Current was allowed to return to baseline between odorant applications. Data acquisition and concentration-response analyses were carried out with a Digidata 1550A and the pCLAMP10 software (Molecular Devices, Sunnyvale, CA, USA), and analyzed using GraphPad Prism 7 (GraphPad Software Inc., La Jolla, CA, USA). Stock concentration of odorants (10^−2 M) were dissolved in ringer solution containing 2% dimethyl sulfoxide (DMSO) in order to solubilize the hydrophobic indolic compounds.
The response profile was established using multiple sessions, each including six compounds at a time and indole as an internal reference. […] All the response values were normalized to the indole reference in each recording session (Supplementary Figure 1).
For the establishment of the concentration-response curves, oocytes were exposed to increasing concentrations of indole, skatole and indole-3-carboxaldehyde (I3C; Supplementary Figure 2). Quantitative characterization of OR sensitivity was estimated using the averaged effective concentration at 50% of the maximal response (EC50) over the sample population. The data to establish the concentration response curve and EC50 of AaegOR10-skatole was extracted from a previous study (Bohbot and Dickens, [2012]).
We also included indole and skatole as references (Bohbot et al., [2011]). The screen was carried out using a low odorant concentration (500 nM) in order to mitigate the caveats associated with high ligand concentrations, including receptor adaptation, antagonist effects and technical artifacts such as broad molecular receptive ranges (Bohbot and Pitts, [2015]).

[2] = system: OR11-ORco; design: method as in Wanner et al., 2007; settings: Apis mellifera OR11-ORco; pheromone receptor; ref Wanner et al., 2007; cited from earlier work
[3] = system: OR08-ORco; design: method as in Bohbot et al., 2009; settings: Aedes aegypti OR08-ORco; kairomone receptor; ref Bohbot et al., 2009; cited from earlier work
[4] = system: OR01-ORco; design: method as in Xu et al., 2012; settings: Bombyx mori OR01-ORco; pheromone receptor; ref Xu et al., 2012; cited from earlier work
[5] = system: OR03-ORco; design: method as in Liu et al., 2014; settings: Spodoptera exigua OR03-ORco; kairomone receptor; ref Liu et al., 2014; cited from earlier work
[6] = system: OR65-ORco; design: method as in Wang et al., 2010; settings: Anopheles gambiae OR65-ORco; kairomone receptor; ref Wang et al., 2010; cited from earlier work
[7] = system: OR06-Orco; design: method as in Wanner et al., 2010; settings: Ostrinia nubilalis OR06-Orco; pheromone receptor; ref Wanner et al., 2010; cited from earlier work
[8] = system: OR03-ORco; design: method as in Leary et al., 2012; settings: Ostrinia furnacalis OR03-ORco; pheromone receptor; ref Leary et al., 2012; cited from earlier work
[9] = system: OR13-ORco; design: method as in Liu et al., 2013; settings: Helicoverpa armigera OR13-ORco; pheromone receptor; ref Liu et al., 2013; cited from earlier work
[10] = system: OR01-ORco; design: method as in Mitsuno et al., 2008; settings: Plutella xyllostella OR01-ORco; pheromone receptor; ref Mitsuno et al., 2008; cited from earlier work
[11] = system: OR13-ORco; design: method as in Wang et al., 2011; settings: Heliothis virescens OR13-ORco; pheromone receptor; ref Wang et al., 2011; cited from earlier work
[12] = system: OR10-ORco; design: method as in Xu et al., 2012; settings: Amyelois transitella OR10-ORco; pheromone receptor; ref Xu et al., 2012; cited from earlier work
[13] = system: OR12-ORco; design: method as in Zhang et al., 2013; settings: Spodoptera litura OR12-ORco; kairomone receptor; ref Zhang et al., 2013; cited from earlier work
[14] = system: OR04-ORco; design: method as in Sun et al., 2013; settings: Plutella xyllostella OR04-ORco; pheromone receptor; ref Sun et al., 2013; cited from earlier work
[15] = system: OR56-ORco; design: method as in Tanaka et al., 2009; settings: Bombyx mori OR56-ORco; kairomone receptor; ref Tanaka et al., 2009; cited from earlier work
[16] = Water solubility; format: physicochemical; settings: skatole vs indole
[17] = system: AaegOR10; settings: Aedes aegypti OR10-ORco; kairomone receptor; ref Bohbot et al., 2012; cited from earlier work
[18] = system: OR10-ORco; design: method as in Hughes et al., 2010; settings: Culex quinquefasciatus OR10-ORco; kairomone receptor; ref Hughes et al., 2010; cited from earlier work

| Compound | Rank according to potency (No.) [1] | also measured |
| --- | --- | --- |
| O=C1Cc2ccccc2N1 [2-Oxindole] | 10 |  |
| c1ccc2c(Cc3c[nH]c4ccccc34)c[nH]c2c1 [3,3’-Diindolemethane] | 8 |  |
| OCCc1c[nH]c2ccccc12 [3-(2-Hydroxyethyl) indole] | 12 |  |
| O=C(O)Cc1c[nH]c2ccccc12 [3-Indole acetic acid] | 28 |  |
| O=C(O)C=Cc1c[nH]c2ccccc12 [3-Indoleacrylic acid] | 18 |  |
| N#CCc1c[nH]c2ccccc12 [3-indole acetonitrile] | 4 | Ligand potency in AaegOR9 tuning curve (in words) [1]: next most potent ligands |
| Oc1cccc2[nH]ccc12 [4-Hydroxyindole] | 7 |  |
| Oc1ccc2[nH]ccc2c1 [5-Hydroxyindole] | 9 |  |
| CC(=O)CCCCCC=CC(=O)O [9-oxo-2-decenoic acid] |  | EC50 [2]: 280 nM |
| C=C[C@H](O)CCCCC [(R)-(−)-1-octen-3-ol] |  | EC50 [3]: 158 nM |
| CCC/C=C\C=C\CCCCCCCCCO [E10,Z12-16:OH (Bombykol), Bombykol] |  | EC50 [4]: 45.4 nM |
| C=CC(=C)CC/C=C(\C)CCC=C(C)C [E-b-farnesene] |  | EC50 [5]: 300 nM |
| C=CCc1ccc(O)c(OC)c1 [Eugenol] |  | EC50 [6]: 222 nM |
| CN(C)Cc1c[nH]c2ccccc12 [Gramine] | 27 | Ligand potency in AaegOR9 tuning curve (in words) [1]: among the least potent ligands |
| COc1ccc2c3c([nH]c2c1)C(C)=NCC3 [Harmaline] | 20 |  |
| Cc1nccc2c1[nH]c1ccccc12 [Harmane] | 6 |  |
| O=Cc1c[nH]c2ccccc12 [I3C, indole-3-carboxaldehyde] | 2 | Ligand potency in AaegOR9 tuning curve (in words) [1]: next most potent ligands |
| O=C1/C(=C2\Nc3ccccc3C2=O)Nc2ccccc21 [Indigo] | 26 |  |
| ON=CCc1c[nH]c2ccccc12 [Indole-3-acetaldoxime] | 21 |  |
| NC(=O)Cc1c[nH]c2ccccc12 [Indole-3-acetamide] | 23 |  |
| C[C@H](NC(=O)Cc1c[nH]c2ccccc12)C(=O)O [Indole-3-acetyl-L-alanine] | 17 |  |

| Compound | Rank according to potency (No.) [1] | also measured |
| --- | --- | --- |
| O=C(O)CCCc1c[nH]c2ccccc12 [Indole-3-butyric acid] | 22 |  |
| OCc1c[nH]c2ccccc12 [Indole-3-carbinole] | 19 | Ligand potency in AaegOR9 tuning curve (in words) [1]: among the least potent ligands |
| O=C(O)c1c[nH]c2ccccc12 [Indole-3-carboxylic acid] | 11 |  |
| O=C(O)CCc1c[nH]c2ccccc12 [Indole-3-propionic acid] | 15 |  |
| O=S(=O)(O)Oc1c[nH]c2ccccc12 [Indoxyl sulfate potassium salt] | 30 |  |
| O=C1Nc2ccccc2C1=O [Isatin] | 16 |  |
| COC(=O)Cc1c[nH]c2ccccc12 [Methyl indole-3-acetate] | 25 |  |
| COC(=O)c1c[nH]c2ccccc12 [Methyl indole-3-carboxylate] | 5 | Ligand potency in AaegOR9 tuning curve (in words) [1]: next most potent ligands |
| c1ccc2c(c1)[nH]c1cnccc12 [Norharmane] | 13 |  |
| COc1ccc2[nH]c3c(c2c1)CCNC3 [Pinoline] | 31 |  |
| c1ccc2ncccc2c1 [Quinoline] | 14 |  |
| NCCc1c[nH]c2ccc(O)cc12 [Serotonin] | 29 |  |
| NCCc1c[nH]c2ccccc12 [Tryptamine] | 24 |  |
| CC/C=C\CCCCCCCCCCOC(C)=O [Z1 1-14:OAc] |  | EC50 [7]: 860 nM; EC50 [8]: 25 nM |
| CCCC/C=C\CCCCCCCCCC=O [Z1 1-16:Ald] |  | EC50 [9]: 3400 nM; EC50 [10]: 880 nM; EC50 [11]: 367 nM |
| CC/C=C\C=C/CCCCCCCCCC=O [Z1 1Z13-16:Ald] |  | EC50 [12]: 499 nM |
| CC/C=C\CCOC(C)=O [Z3-6:OAc] |  | EC50 [13]: 339 nM |
| CCCC/C=C\CCCCCCCCOC(C)=O [Z9-14: OAc] |  | EC50 [14]: 243 nM |
| CCCC/C=C\CCCCCCCC=O [Z9-14:Ald] |  | EC50 [11]: 240 nM |
| CC/C=C\CC1=C(C)CCC1=O [Z-jasmone] |  | EC50 [15]: 6000 nM |
| Cc1c[nH]c2ccccc12 [skatole, 3-methylindole] | 1 | Ligand potency in AaegOR9 tuning curve (in words) [1]: most potent ligand; AaegOR9 response relative to indole (tuning curve) [1]: five times higher than indole; AaegOR9 response relative to indole (tuning curve) ([1]; listed as Skatole): five times more potent than indole; EC50 ([1]; AaegOR9, concentrations 100 pM to 10 μM): ~5 nM; Fold higher sensitivity of AaegOR9 to skatole than to indole (EC50 ratio) ([1]; AaegOR9, skatole vs indole): 176; EC50 ([1]; Aedes aegypti OR9-ORco, kairomone receptor, This study): 4.8 nM; Concentration range activating AaegOR9 ([1]; selective and reversible activation): high picomolar (below 1 nM) to low nanomolar (between 1 and 10 nM); Water solubility relative to indole [16]: seven times less water soluble; EC50 [17]: 109 nM; EC50 [18]: 90 nM |
